The target in assay [1] is T1, N-terminally FLAG-tagged PARP2 (amino acids 1-583) (Homo sapiens, UniProt Q9UGN5).
T1 construct: N-terminally FLAG-tagged PARP2 (amino acids 1-583)
Description: PARP2 probe displacement HTRF assay. Conditions: binned Kd. Type of assay: binding. The protocol:
Data analysis was performed identical as for PARP1.

The next assay has as its target T2, PARP1 (Homo sapiens, UniProt P09874).
T2 construct: host or cells: HEK293
Description: NanoBRET cellular target occupancy assay, PARP1. The format is cell-based. The note with it: for pKd: HEK293 cells transiently transfected with PARP1-NanoLuc fusion, tracer 11 nM, 2 hours at 37° C., Kd by Cheng-Prussoff; for Selectivity: NanoBRET, PARP1 over PARP2, Kd (PARP2)/Kd (PARP1). (BRET reads energy transfer from a luciferase to a nearby fluorophore.)

In the next assay the target is T3, PARP2 (Homo sapiens, UniProt Q9UGN5).
T3 construct: host or cells: HEK293
T3 sequence (Q9UGN5 whole entry): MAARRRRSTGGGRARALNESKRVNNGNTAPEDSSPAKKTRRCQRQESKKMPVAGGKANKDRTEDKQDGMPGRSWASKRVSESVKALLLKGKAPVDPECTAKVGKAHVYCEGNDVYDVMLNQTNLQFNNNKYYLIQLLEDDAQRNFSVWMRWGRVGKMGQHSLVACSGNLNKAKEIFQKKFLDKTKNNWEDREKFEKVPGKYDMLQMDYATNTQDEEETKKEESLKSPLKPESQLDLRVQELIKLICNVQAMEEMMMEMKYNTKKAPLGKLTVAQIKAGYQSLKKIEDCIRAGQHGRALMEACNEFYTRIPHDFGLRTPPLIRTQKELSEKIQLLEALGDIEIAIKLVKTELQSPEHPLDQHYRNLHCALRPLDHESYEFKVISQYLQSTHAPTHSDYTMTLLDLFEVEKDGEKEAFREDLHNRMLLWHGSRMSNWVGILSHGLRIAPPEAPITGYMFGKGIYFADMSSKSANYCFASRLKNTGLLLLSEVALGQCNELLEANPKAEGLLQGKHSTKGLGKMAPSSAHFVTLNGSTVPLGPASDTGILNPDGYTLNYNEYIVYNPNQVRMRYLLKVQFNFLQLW
Briefly: NanoBRET cellular target occupancy assay, PARP2. Conditions: HEK293 cells transiently transfected with PARP2-NanoLuc fusion; tracer 2 nM; 2 hours at 37° C.; Kd by Cheng-Prussoff. Type of assay: cell-based. The source says: NanoBRET Cellular Target Occupancy Assay

Assay [2] has as its target T4, full length N-terminally FLAG-tagged PARP1 (Homo sapiens, UniProt P09874). Briefly: PARP1 probe displacement HTRF assay. The note with it: for Selectivity: PARP1 over PARP2, ratio Kd (PARP2)/Kd (PARP1); for pKd: binned Kd.
Assay [3] concerns the target T4, full length N-terminally FLAG-tagged PARP1. Description: PARP1 biochemical DELFIA assay (auto-PARylation). Details: recombinant full length human N-terminally FLAG-tagged PARP1.
Where [4] appears, read: read-out: PARP1 HTRF, PARP1 probe displacement HTRF.
Where [5] appears, read: binned IC50, PARP1 biochemical DELFIA assay.
[6] abbreviates: read-out: PARP1 HTRF, probe displacement HTRF.
Setting [7] is: binned IC50, biochemical auto-PARylation assay.

pIC50, pKd: −log10 of the molar value. Like-named read-outs stand apart in the source and are kept apart here.

For orientation: pIC50 means the IC50 on a negative log10 scale, so that one unit is a factor of ten.

T4 sequence (P09874 whole entry): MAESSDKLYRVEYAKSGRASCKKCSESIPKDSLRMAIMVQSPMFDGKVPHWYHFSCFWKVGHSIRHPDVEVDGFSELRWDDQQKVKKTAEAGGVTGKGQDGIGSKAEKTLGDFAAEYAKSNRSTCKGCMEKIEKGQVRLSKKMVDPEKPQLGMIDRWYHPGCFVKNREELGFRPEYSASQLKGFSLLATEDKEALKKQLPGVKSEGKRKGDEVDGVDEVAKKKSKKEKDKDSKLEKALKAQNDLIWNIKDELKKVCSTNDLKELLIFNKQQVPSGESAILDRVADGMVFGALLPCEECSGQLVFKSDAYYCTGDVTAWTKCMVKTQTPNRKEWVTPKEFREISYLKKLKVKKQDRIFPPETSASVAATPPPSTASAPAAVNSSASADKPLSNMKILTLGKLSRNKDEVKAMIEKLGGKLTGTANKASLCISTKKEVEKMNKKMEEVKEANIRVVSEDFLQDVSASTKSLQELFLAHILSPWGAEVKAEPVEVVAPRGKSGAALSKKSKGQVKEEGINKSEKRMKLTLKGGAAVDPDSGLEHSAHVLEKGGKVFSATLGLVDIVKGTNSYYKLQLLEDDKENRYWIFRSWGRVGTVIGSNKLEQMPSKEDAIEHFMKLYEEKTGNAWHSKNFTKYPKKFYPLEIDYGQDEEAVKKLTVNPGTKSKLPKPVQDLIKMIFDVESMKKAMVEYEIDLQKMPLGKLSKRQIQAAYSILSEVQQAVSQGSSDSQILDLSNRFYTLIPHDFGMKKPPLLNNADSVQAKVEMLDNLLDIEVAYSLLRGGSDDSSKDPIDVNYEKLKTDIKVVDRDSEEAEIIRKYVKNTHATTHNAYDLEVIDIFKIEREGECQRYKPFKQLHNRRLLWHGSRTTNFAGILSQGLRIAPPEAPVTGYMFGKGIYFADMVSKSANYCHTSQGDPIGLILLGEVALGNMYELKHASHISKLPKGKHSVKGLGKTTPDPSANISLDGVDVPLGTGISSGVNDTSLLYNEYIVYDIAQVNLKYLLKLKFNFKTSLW
T2 sequence (P09874 whole entry): as above
T1 sequence (Q9UGN5 whole entry, the tested form may be a part): as the sequence (Q9UGN5 whole entry) above

As for `CNC(=O)c1ccc(N2CCC(N3CCC(c4cc5ccc(Cl)cc5c(=O)[nH]4)C3)CC2)cn1` (single isomer, unassigned) [Compound 129b], the pKd is 7.00 to 8.00 in assay [1] (PARP2 probe displacement HTRF), greater than 8.00 at PARP1, 6.00 to 7.00 at PARP2 and greater than 8.00 in assay [2] (setting [4]). Further, the Selectivity result (on PARP1; in assay [2] (probe displacement HTRF)) was “+++ (+++ indicate a value of at least 100)” each time. For the same molecule, in assay [3] (setting [5]), the pIC50 is greater than 8.00.

Turning to `CCc1ccc(C2CCN(C3CCN(c4ccc(C(=O)NC)nc4Cl)CC3)C2)[nH]c1=O` (racemic) [Compound 144rac], the pKd was 5.00 to 6.00 in assay [1] (PARP2 probe displacement HTRF), greater than 8.00 at PARP1, less than 5.00 on PARP2 and greater than 8.00 in assay [2] (setting [4]). The Selectivity result (on PARP1; in assay [2] (probe displacement HTRF)) was “+++ (+++ indicate a value of at least 100)” in each case. For the same molecule, in assay [3] (setting [5]), the pIC50 is greater than 8.00.

With `CNC(=O)c1ccc(N2CCC(N3CCC(c4cc5ccc(F)cc5c(=O)[nH]4)C3)CC2)cn1` (single isomer, unassigned) [Compound 154b, 5-(4-(3-(7-fluoro-1-oxo-1,2-dihydroisoquinolin-3-yl)pyrrolidin-1-yl)piperidin-1-yl)-N-methylpicolinamide], the pKd in assay [1] (PARP2 probe displacement HTRF) was 7.00 to 8.00; at PARP1, greater than 8.00; on PARP2, 6.00 to 7.00; in assay [2] (setting [4]), greater than 8.00. For the same molecule, the values for the Selectivity entry (on PARP1; in assay [2] (probe displacement HTRF)) were “+++ (+++ indicate a value of at least 100)” and “+ (+ indicates a value of 10 to less than 50)”, respectively. The pIC50 in assay [3] (setting [5]) was greater than 8.00.

Consider `O=C(NC1CC1)c1ccc(N2CCC(N3CCC(c4cc5cccc(F)c5c(=O)[nH]4)C3)CC2)cn1` (single isomer, unassigned) [Compound 339a], for which the pKd in assay [1] (probe displacement HTRF) was 7.00 to 8.00; on PARP1, greater than 8.00; on PARP2, 7.00 to 8.00; in assay [2] (setting [6]), greater than 8.00. The Selectivity result (at PARP1; in assay [2] (probe displacement HTRF)) was “+ (+ indicates a value of 10 to less than 50)” each time. The negative logarithm of the IC50 (pIC50) in assay [3] (setting [7]) is greater than 8.00.

For the molecule `CNC(=O)c1ccc(N2CCC(N3CCC(c4nc5ccccc5c(=O)[nH]4)C3)CC2)cn1` (single isomer, unassigned) [Compound 10b, N-methyl-5-(4-(3-(4-oxo-3,4-dihydroquinazolin-2-yl)pyrrolidin-1-yl)piperidin-1-yl)picolinamide], the pKd is 6.00 to 7.00 in assay [1] (PARP2 probe displacement HTRF), greater than 8.00 at PARP1, 5.00 to 6.00 at PARP2 and greater than 8.00 in assay [2] (setting [4]). Besides, the Selectivity result (on PARP1; in assay [2] (probe displacement HTRF)) was “+++ (+++ indicate a value of at least 100)” each time. In assay [3] (setting [5]), the pIC50 is greater than 8.00.

Regarding `CNC(=O)c1ccc(N2CCC(N3CCC(c4cc5ncc(Cl)cc5c(=O)[nH]4)C3)CC2)c(F)n1` (single isomer, unassigned) [Compound 344b], the pKd in assay [1] (probe displacement HTRF) was 5.00 to 6.00; at PARP1, greater than 8.00; on PARP2, less than 5.00; in assay [2] (setting [6]), greater than 8.00. The Selectivity result (on PARP1; in assay [2] (probe displacement HTRF)) was “+++ (+++ indicate a value of at least 100)” each time. Further, the pIC50 in assay [3] (setting [7]) was greater than 8.00.

For `CNC(=O)c1ccc(N2CCC(N3CCC(c4nc5ccccc5c(=O)[nH]4)C3)CC2)c(F)n1` (racemic) [Compound 157rac], the pKd in assay [1] (PARP2 probe displacement HTRF) was 5.00 to 6.00; at PARP1, greater than 8.00; at PARP2, less than 5.00; in assay [2] (setting [4]), greater than 8.00. The Selectivity entry (at PARP1; in assay [2] (probe displacement HTRF)) was “+++ (+++ indicate a value of at least 100)” in each case. In addition, the pIC50 in assay [3] (setting [5]) was greater than 8.00.

As for `CNC(=O)c1ccc(N2CCC(N3CCC(c4ccc(CC5CC5)c(=O)[nH]4)C3)CC2)c(F)n1` (single isomer, unassigned) [Compound 313b], the pKd in assay [1] (probe displacement HTRF) is 5.00 to 6.00; on PARP1, greater than 8.00; at PARP2 it was 5.00 to 6.00; in assay [2] (setting [6]) it was greater than 8.00. For the same molecule, the Selectivity result (at PARP1; in assay [2] (probe displacement HTRF)) was “+++ (+++ indicate a value of at least 100)” throughout. Besides, the pIC50 in assay [3] (setting [7]) was greater than 8.00.

Take `CNC(=O)c1ccc(N2CCC(N3CC4(c5nc6ccccc6c(=O)[nH]5)CC3C4)CC2)cn1` [Compound 192, N-methyl-5-(4-(4-(4-oxo-3,4-dihydroquinazolin-2-yl)-2-azabicyclo[2.1.1]hexan-2-yl)piperidin-1-yl)picolinamide]: the pKd is 5.00 to 6.00 in assay [1] (PARP2 probe displacement HTRF); greater than 8.00 on PARP1; 5.00 to 6.00 on PARP2; greater than 8.00 in assay [2] (PARP1 HTRF, PARP1 probe displacement HTRF). Besides, the Selectivity entry (on PARP1; in assay [2] (probe displacement HTRF)) was “+++ (+++ indicate a value of at least 100)” throughout. In assay [3] (setting [5]), the negative-log IC50 (pIC50) was greater than 8.00.

With `CNC(=O)c1ccc(N2CCC(N3CCC(c4cc5ccc(F)cc5c(=O)[nH]4)C3)CC2)nn1` (single isomer, unassigned) [Compound 197a], the pKd in assay [1] (PARP2 probe displacement HTRF) was 6.00 to 7.00; at PARP1, greater than 8.00; at PARP2 it was 6.00 to 7.00; in assay [2] (setting [4]), greater than 8.00. Further, the Selectivity entry (at PARP1; in assay [2] (probe displacement HTRF)) was “+++ (+++ indicate a value of at least 100)” throughout. In addition, the pIC50 in assay [3] (setting [5]) is greater than 8.00.

In the case of `N#Cc1ccc(N2CCC(N3CCC(c4cc5cccc(F)c5c(=O)[nH]4)C3)CC2)cn1` (single isomer, unassigned) [Compound 316a], the pKd was 6.00 to 7.00 in assay [1] (probe displacement HTRF), greater than 8.00 at PARP1, 6.00 to 7.00 on PARP2 and greater than 8.00 in assay [2] (setting [6]). For the same molecule, the Selectivity entry (at PARP1; in assay [2] (probe displacement HTRF)) was “+++ (+++ indicate a value of at least 100)” throughout. The pIC50 in assay [3] (setting [7]) was greater than 8.00.

In the case of `CNC(=O)c1ccc(N2CCC(N3CCC(c4cc5ncc(Cl)cc5c(=O)[nH]4)C3)CC2)cn1` (racemic) [Compound 329rac], the pKd in assay [1] (probe displacement HTRF) is 6.00 to 7.00; at PARP1 it was greater than 8.00; at PARP2 it was 5.00 to 6.00; in assay [2] (setting [6]) it was greater than 8.00. The Selectivity entry (at PARP1; in assay [2] (probe displacement HTRF)) was “+++ (+++ indicate a value of at least 100)” throughout. Moreover, the pIC50 in assay [3] (setting [7]) was greater than 8.00.

With `CNC(=O)c1ccc(N2CCC(N3CCC(c4nc5c(c(C(F)(F)F)cn5C)c(=O)[nH]4)C3)CC2)cn1` (racemic) [Compound 170rac], the pKd is greater than 8.00 in assay [1] (PARP2 probe displacement HTRF), greater than 8.00 at PARP1, 7.00 to 8.00 at PARP2 and greater than 8.00 in assay [2] (setting [4]). The Selectivity result on PARP1 is reported as “+ (+ indicates a value of 10 to less than 50)”; in assay [2] (probe displacement HTRF), “− (− indicates a value of less than 10)”. In assay [3] (setting [5]), the pIC50 is greater than 8.00.

Take `CNC(=O)c1ccc(N2CCC(N3CCC(c4nc5[nH]cc(C(F)(F)F)c5c(=O)[nH]4)C3)CC2)cn1` (racemic) [Compound 150rac]: the pKd was greater than 8.00 in assay [1] (PARP2 probe displacement HTRF), 7.00 to 8.00 at PARP1, 6.00 to 7.00 at PARP2 and greater than 8.00 in assay [2] (setting [4]). For the same molecule, the Selectivity result is on record as “+ (+ indicates a value of 10 to less than 50)” at PARP1 and “− (− indicates a value of less than 10)” in assay [2] (probe displacement HTRF). In addition, the pIC50 in assay [3] (setting [5]) is greater than 8.00.

As to `CNC(=O)c1ccc(N2CCC(N3CCC(c4cc5ccc(F)cc5c(=O)[nH]4)C3)CC2)c(F)n1` (single isomer, unassigned) [Compound 174b], the pKd was 7.00 to 8.00 in assay [1] (PARP2 probe displacement HTRF), greater than 8.00 at PARP1, 6.00 to 7.00 at PARP2 and greater than 8.00 in assay [2] (setting [4]). For the same molecule, the Selectivity entry (at PARP1; in assay [2] (probe displacement HTRF)) was “+++ (+++ indicate a value of at least 100)” each time. The pIC50 in assay [3] (setting [5]) is greater than 8.00.

For the molecule `CCc1ccc(C2CCN(C3CCN(c4ccc(C(=O)NC)nc4Cl)CC3)C2)[nH]c1=O` (single isomer, unassigned) [Compound 239b], the pKd in assay [1] (probe displacement HTRF) is 5.00 to 6.00; at PARP1, greater than 8.00; at PARP2, 5.00 to 6.00; in assay [2] (setting [6]), greater than 8.00. Further, the Selectivity result (at PARP1; in assay [2] (probe displacement HTRF)) was “+++ (+++ indicate a value of at least 100)” in each case. Further, the pIC50 in assay [3] (setting [7]) is greater than 8.00.

As for `CNC(=O)c1ccc(N2CCC(N3CCC(c4cc5c(F)ccc(F)c5c(=O)[nH]4)C3)CC2)c(F)n1` (single isomer, unassigned) [Compound 323b], the pKd in assay [1] (probe displacement HTRF) is 7.00 to 8.00; at PARP1 it was greater than 8.00; at PARP2, 6.00 to 7.00; in assay [2] (setting [6]), greater than 8.00. Further, the Selectivity entry (at PARP1; in assay [2] (probe displacement HTRF)) was “+++ (+++ indicate a value of at least 100)” in each case. Besides, the pIC50 in assay [3] (setting [7]) was greater than 8.00.

(Values after patent publication US20250152585A1, “PHARMACEUTICAL COMPOUND” (Duke Street Bio Limited, priority 2022, published 2025).)
